Values quoted from earlier work as cited in US6471968B1, “Multifunctional nanodevice platform” (Regents of the University of Michigan, priority 2000, dated 2002).

System: solid tumor models
Conditions: solid tumor models for which cisplatin has no effect

SMILES: N.N.[Cl][Pt][Cl] [cisplatin]
- in vivo activity in solid tumor models: no effect
